Where “and” joins values, the source holds several entries; their conditions need not be identical. Identical values can stand only once.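 Dose response: 5 concentrations. Exposure: 48 h. Format: 96-well plates. Endpoint: linear interpolation; highest concentration if not reached. GI50 is the concentration that inhibits growth by half. The concentration for full growth arrest is given as TGI.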

Holding throughout (assay): inhibition of tumour cell growth, NCI panel, 48 h
The subject of assay [1] is MDA-MB-435.
For assay [2], the system named is COLO 205 colon.
Assay [3] relates to SNB-19 CNS.
Assay [4] deals with OVCAR-5 ovarian.
In assay [5] the test system is NCI-H226 lung.
Assay [6] relates to SK-OV-3 ovarian.
Assay [7] concerns UACC-62 melanoma.
In assay [8] the test system is A549 NSCLC.
Assay [9] has as its system SN12C renal.
For assay [10], the system named is CCRF-CEM leukemia.

In the case of `Cc1ccc(/C=C/C(=O)c2ccc(F)cc2)s1`, the GI50 is 1.77 µM in [1]; 6.07 µM in assay [2]; 11.3 µM in assay [3]; 5.39 µM in [4]; 10.4 µM in [5]; 15.4 µM in [6]. Moreover, the GI50 in assay [7] is 6.86 µM; in [8], 4.22 µM; in assay [9], 6.47 µM. In addition, the TGI in assay [1] stood at 3.7 µM; in assay [2], 19.9 µM; in [3] it was 24.4 µM; in assay [4], 18.6 µM; in assay [5] it was 24 µM; in assay [6], 37.9 µM. The TGI in assay [7] stood at 21.3 µM; in [8], 17.6 µM; in assay [9] it was 19.8 µM.

In the case of `O=C(O)c1c2c(c(O)c3c1CN(C1CCCCC1)CO3)OCN(C1CCCCC1)C2`, the TGI in [1], in [2], in assay [3], in assay [4], in assay [6] and in assay [7] was > 100 µM throughout. In addition, the TGI in [8] is > 100 µM; in assay [9], 72.9 µM; in [10] it was 55.7 µM.

In the case of `O=C(O)C1CCCN1` (stereo not drawn), the TGI in assay [1], in assay [2], in [3], in assay [4], in assay [5] and in assay [6] was > 100 µM in each case. Also, the TGI in assay [7], in assay [8] and in assay [9] was > 100 µM in each case.

As for `N#Cc1cnc2ccc(NCc3cnc[nH]3)cc2c1Nc1ccc(F)c(Cl)c1`, the GI50 was 14.7 µM in assay [1]; > 100 µM in assay [2]; 27 µM in assay [3]; 18.2 µM in [4]; > 100 µM in assay [5]; 4.2 µM in assay [6]. In addition, the GI50 is 13.9 µM in assay [7] and 4.17 µM in assay [9]. Further, the TGI is 88.5 µM in assay [1]; > 100 µM in assay [2]; > 100 µM in assay [3]; > 100 µM in assay [4]; > 100 µM in [5]; > 100 µM in assay [6]. Moreover, the TGI was 75 µM in assay [7] and > 100 µM in assay [9].

For the molecule `CC[O-].CC[O-].[O-]c1ccccc1C=NC12CC3CC(CC(C3)C1)C2.[O-]c1ccccc1C=NC12CC3CC(CC(C3)C1)C2.[Ti+4]`, the GI50 in assay [2] was 67.3 µM; in assay [3] it was > 100 µM; in [4], > 100 µM; in [5], > 100 µM; in [6], > 100 µM; in assay [7], 19.6 µM. Also, the GI50 in assay [8] is > 100 µM; in assay [9] it was 86.4 µM; in [10], 11 µM. Besides, the TGI in [2], in assay [3], in [4], in [5], in [6] and in assay [7] was > 100 µM throughout. For the same molecule, the TGI in assay [8], in assay [9] and in assay [10] was > 100 µM in each case.

For the molecule `O=c1cc(-c2cccc(Cl)c2)[nH]c2cc3c(cc12)OCO3`, the TGI was 0.193 µM in assay [1]; 10.4 µM in assay [2]; 75 µM and 10.2 µM in [3]; > 100 µM in assay [4]; 3.05 µM in [6]; 0.556 µM in [7]. The TGI was 75 µM and 18.1 µM in assay [8]; 75 µM and 12.5 µM in assay [9]; 75 µM and 22.6 µM in assay [10]. For the same molecule, the GI50 is 0.363 µM in assay [3], 0.829 µM in [8] and 0.522 µM in [9].

For `CN(N=O)C(=O)NC(CCCCNC(=O)OCc1ccccc1)C(=O)OCc1ccccc1` (stereo not drawn), the TGI in assay [2] was 47.2 µM; in assay [3] it was > 100 µM; in assay [4], > 100 µM; in [5], > 100 µM; in assay [6], > 100 µM; in assay [7], 33.1 µM. Also, the figures for the TGI in [8], in assay [9] and in assay [10] were > 100 µM, 31.9 µM and 57.1 µM, respectively.

For `CC(C)(Sc1cc(C(C)(C)C)c(O)c(C(C)(C)C)c1)Sc1cc(C(C)(C)C)c(O)c(C(C)(C)C)c1`, the TGI in assay [1], in assay [2], in [3], in [4], in assay [6] and in assay [7] was > 100 µM throughout. The TGI in assay [8], in assay [9] and in assay [10] was > 100 µM in each case.

As to `COc1cccc2c1C(=O)c1c(O)c3c(c(O)c1C2=O)C[C@@](O)(/C(C)=N/NC(=O)c1cccc([N+](=O)[O-])c1)C[C@@H]3OC1CC(N)C(O)C(C)O1` (stereo partly drawn), the GI50 in [2] was 0.208 µM; in assay [3], 0.291 µM; in assay [4], 0.919 µM; in [5], 0.16 µM; in [6], 0.374 µM; in assay [7], 0.199 µM. The GI50 was 0.362 µM in [8], 0.233 µM in assay [9] and 0.167 µM in assay [10]. Besides, the TGI came out at 1.5 µM in assay [2]; 12 µM in assay [3]; 13.5 µM in assay [4]; 0.714 µM in assay [5]; 7.56 µM in assay [6]; 1.5 µM in assay [7]. Further, the TGI is 11.8 µM in assay [8], 16.9 µM in assay [9] and 4.33 µM in assay [10].

`O=c1oc2ccccc2cc1P(=O)(O)O`: the TGI in [1], in assay [2], in assay [3], in assay [4], in [5] and in assay [7] was > 100 µM each time. Besides, the TGI in [8], in assay [9] and in assay [10] was > 100 µM each time.

In the case of `Cc1cc(C)c2c(c1)CSCc1cc(C)cc(C)c1-2`, the TGI in assay [2] is 73.3 µM; in [3], > 100 µM; in assay [4], > 100 µM; in assay [5] it was > 100 µM; in [6], > 100 µM; in assay [7] it was > 100 µM. Further, the TGI in assay [8] is > 100 µM; in assay [9] it was > 100 µM; in assay [10], 45.5 µM.

On to `[Cu].c1ccc2c(c1)C1=NC2=NC2=NC(=NC3=NC(=NC4=NC(=N1)c1ccccc14)c1ccccc13)c1ccccc12`, for which the GI50 in assay [1], in [3], in [4], in assay [6], in [7] and in [8] was > 100 µM each time. In assay [9], the GI50 is > 100 µM. Besides, the TGI in assay [1], in [3], in assay [4], in assay [6], in assay [7] and in assay [8] was > 100 µM each time. Moreover, the TGI in assay [9] is > 100 µM.

With `Cc1cc[c]([Sb]2[O]C(CO)C(C(O)C(O)C(=O)O)[O]2)cc1` (stereo not drawn), the GI50 in assay [1] is 81.7 µM; in assay [3], 60.6 µM; in assay [4], 29.2 µM; in assay [5], 39.9 µM; in assay [7] it was > 100 µM; in assay [8], 35.3 µM. Besides, the GI50 in [9] is 51.9 µM; in assay [10] it was > 100 µM. For the same molecule, the TGI was > 100 µM in assay [1]; > 100 µM in assay [3]; 75.2 µM in [4]; > 100 µM in assay [5]; > 100 µM in assay [7]; > 100 µM in assay [8]. Further, the TGI in assay [9] and in assay [10] was > 100 µM each time.

Consider `[O-]c1ccccc1C=NCCN=Cc1ccccc1[O-].[O]=[U+2]=[O]`, for which the GI50 in assay [2] was > 51.8 µM; in assay [3] it was 23.3 µM; in assay [4], > 100 µM; in [5], > 42.5 µM; in assay [6], 24.3 µM; in [7], 37.4 µM. Also, the GI50 in assay [8] is 43.1 µM; in assay [9] it was 28.4 µM; in [10], 35.3 µM. Besides, the TGI is > 85.1 µM in assay [2]; > 67.3 µM in assay [3]; > 100 µM in assay [4]; > 63.6 µM in assay [5]; 57 µM in [6]; > 74.3 µM in assay [7]. Further, the results for the TGI in assay [8], in assay [9] and in assay [10] were > 100 µM, > 63.4 µM and > 100 µM, respectively.

On to `CCN(CC)C(=O)c1cccc2c(OC)ccc(OC)c12`, for which the TGI in [2], in [3], in assay [4], in assay [5], in assay [6] and in [7] was > 100 µM throughout. In addition, the TGI in assay [8], in assay [9] and in assay [10] was > 100 µM in each case.

As to `CC1=NC2(C(=O)O)C3(C(=O)O)N=C(C)OC3(C(F)(F)F)C2(C(F)(F)F)O1` (stereo not drawn), the TGI in [2], in [3], in [4], in [5], in [6] and in assay [7] was > 100 µM each time. In addition, the TGI in [8], in [9] and in [10] was > 100 µM in each case.

As to `O=c1[nH]c(=O)n(Cc2ccc(C34CC5CC(CC(C5)C3)C4)c(O)c2)cc1F`, the GI50 in [1] was 3.67 µM; in assay [2], 17.2 µM; in assay [3], 15.6 µM; in assay [4], 16.1 µM; in assay [5] it was 16.7 µM; in assay [6] it was 21 µM. The GI50 in assay [7] is 6.93 µM; in assay [9] it was 13.5 µM. In addition, the TGI in [1] was determined as 15.4 µM; in assay [2], 37.9 µM; in [3] it was 34 µM; in assay [4] it was 33.4 µM; in [5] it was 32.6 µM; in assay [6] it was 55.7 µM. Further, the TGI was 20.3 µM in assay [7] and 26.8 µM in [9].

Regarding `O=C1C2C3SC(c4cc5ccccc5cc43)C2C(=O)N1c1ccccc1` (stereo not drawn), the TGI in assay [2], in assay [3], in [4], in assay [5], in assay [6] and in assay [7] was > 100 µM in each case. Moreover, the TGI in assay [8], in [9] and in [10] was > 100 µM each time.

In the case of `CCOc1ccc2c(c1)[n+]([O-])c(-c1ccccc1)c(N)[n+]2[O-]`, the TGI is 81.8 µM in assay [2]; > 100 µM in assay [3]; > 100 µM in assay [4]; > 100 µM in assay [5]; > 100 µM in assay [6]; > 100 µM in assay [7]. In addition, the TGI in assay [8], in [9] and in assay [10] was > 100 µM each time.

For the molecule `O=C(O)c1ccccc1NS(=O)(=O)c1ccc(Cl)cc1`, the TGI in assay [2], in assay [3], in [4], in assay [5], in assay [6] and in assay [7] was > 100 µM in each case. For the same molecule, the TGI in assay [8], in [9] and in [10] was > 100 µM each time.

Turning to `CCOP(=O)(OCC)C(C(=O)OC)C(=O)C(=O)Nc1cccc([N+](=O)[O-])c1` (stereo not drawn), the TGI in [2], in assay [3], in [4], in assay [5], in [6] and in [7] was > 100 µM throughout. Besides, the TGI in [8], in assay [9] and in [10] was > 100 µM throughout.

`O=C1CN=C(c2ccccc2)c2ccncc2N1`: the TGI in [2], in assay [3], in [4], in [5], in assay [6] and in [7] was > 100 µM in each case. The TGI in assay [8], in assay [9] and in assay [10] was > 100 µM each time.

(Values after PubChem BioAssay (NCI).)
